In patent US10017459B2, “β-substituted β-amino acids and analogs as chemotherapeutic agents and uses thereof” (Quadriga Biosciences, Inc., priority 2015, dated 2018):

Tests used:
U251 = test: cells; type: cell-based; details: Homo sapiens, U-251, read-out: IC50 (in vitro toxicity)
42MGBA = test: cells; type: cell-based; details: read-out: IC50 (in vitro toxicity)
DBRTG = test: cells; type: cell-based; details: read-out: IC50 (in vitro toxicity)
MCF7 = test: In vitro cytotoxicity, MCF7; type: cell-based; details: Homo sapiens, MCF7, read-out: IC50 (in vitro toxicity)
PC3 [1] = test: cells; type: cell-based; details: Homo sapiens, PC-3, read-out: IC50 (in vitro toxicity)
KMS34 = test: cells; type: cell-based; details: KMS-34, read-out: IC50 (in vitro toxicity)
L363 = test: cells; type: cell-based; details: Homo sapiens, L-363, read-out: IC50 (in vitro toxicity)
AMO1 = test: cells; type: cell-based; details: Homo sapiens, AMO1, read-out: IC50 (in vitro toxicity)
U266 = test: cells; type: cell-based; details: Homo sapiens, U-266, read-out: IC50 (in vitro toxicity)
HS27A = test: cells; type: cell-based; details: HS-27A, read-out: IC50 (in vitro toxicity)
RPMI8266 = test: cells; type: cell-based; details: RPMI8266, read-out: IC50 (in vitro toxicity)
HS5 = test: cells; type: cell-based; details: HS5, read-out: IC50 (in vitro toxicity)
799E = test: In vitro cytotoxicity, 799E; type: cell-based; details: read-out: IC50 (in vitro toxicity)
Mia-PaCa2 = test: In vitro cytotoxicity, Mia-PaCa2; type: cell-based; details: Homo sapiens, MIA PaCa-2, read-out: IC50 (in vitro toxicity)
MDA-MB-231 [2] = test: Breast cancer xenograft study, IP dosing; type: in vivo, mouse
Protocol: The efficacy of compounds provided by the present disclosure was evaluated on a triple negative breast cancer xenograft model—MDA-MB-231. The tumors were implanted into mice and the study was initiated after the volume of the tumors was 140 mm^3. The animals were IP dosed once a week or 3 times per week for 3 weeks with either vehicle or 1.25 mg/kg, 2.5 mg/kg, or 5 mg/kg of compound (5). The tumor volume, body weight, white blood cell count, and granulocyte count were determined during the study and 20 days after the final dose was administered. […] Tumor growth remained about 90% suppressed 20 days post-dosing following the 5 mg/kg treatment regimens.

PC3 [3] = test: Prostate cancer xenograft study, IP dosing; type: in vivo, mouse
Protocol: The efficacy of compounds provided by the present disclosure was evaluated on a prostate cancer xenograft model—PC3. PC3 tumors were implanted into mice and the study was initiated after the volume of the tumors was 130 mm^3. The animals were IP dosed once a week or 3 times per week for 3 weeks with either vehicle or 1.25 mg/kg, 2.5 mg/kg, or 5 mg/kg of compound (5). The tumor volume, body weight, white blood cell count, and granulocyte count were determined during the study and 10 days after the final dose was administered.

MDA-MB-231 [4] = test: Triple negative breast cancer study, IV dosing; type: in vivo, mouse; details: IV once a week for 8 weeks
Protocol: The efficacy of compounds provided by the present disclosure was evaluated on a triple negative breast cancer xenograft model—MDA-MB-231. Human triple negative breast cancer cells were implanted into the flank of nude mice and the study was initiated after the volume of the tumors was 150 mm^3. The animals were IV dosed once a week for 8 weeks with either vehicle or 5 mg/kg of compound (5), or 20 mg/kg compound (7). The tumor volume, body weight, white blood cell count, and granulocyte count were determined during the study and 12 days after the final dose was administered.

U251 MG [5] = test: Orthotopic glioblastoma study (Example 83); type: in vivo, mouse; details: athymic mice, 10 mg/kg IP once weekly for 4 weeks
Protocol: (§1) The efficacy of compounds provided by the present disclosure was evaluated using an orthotopic luciferase human glioblastoma model—U251 MG. Human glioblastoma cells were intracolonically injected (3×10^5 cells/3 μL) into athymic mice (female, 4-5 weeks-old, nu/un homozygous). Treatment began when the BLI reached a log-phase growth, at about 14 days after injection. Ten mice were assigned to each arm of the study. The mice were dosed with vehicle (IP, once weekly for 4 weeks), temozolomide (TMZ, 4 mg/kg, OG once daily for 5 days), or compound (5) (10 mg/kg, IP once weekly for 4 weeks). The tumor volume was measured using bioluminescence imaging.

U251 MG [6] = test: Orthotopic glioblastoma study (Example 84); type: in vivo, mouse; details: 5 mg/kg and 10 mg/kg IV once weekly for 4 weeks
Protocol: as §1, with “weeks), compound (5) (5 mg/kg, IV once weekly for” for “weeks), temozolomide (TMZ,”, “4 weeks),” for “4 mg/kg, OG once daily for 5 days), or”, “mg/kg, IV” for “mg/kg, IP”, “4 weeks), compound (40) (10 mg/kg, IV once weekly for 4 weeks), or compound (50) (20 mg/kg, IV single dose).” for “4 weeks).”

[7] = tested on: Human prostate cancer PC3 cells; details: mouse, in vivo
[8] = tested on: human bone marrow cells (erythroid and myeloid progenitors); test: In vitro bone marrow toxicity, colony forming cell assays; details: 14 days in culture, methylcellulose media
[9] = during and following treatment, all dosing regimens

## Cc1ccc(N(CCCl)CCCl)cc1C[C@H](N)CC(=O)O [Compound 5, (3S)-3-Amino-4-[5-[bis(2-chloroethyl)amino]-2-methyl-phenyl]butanoic Acid]
U251
  IC50: < 100 µM
42MGBA
  IC50: < 100 µM
DBRTG
  IC50: < 100 µM
MCF7
  IC50: < 100 µM
PC3 [1]
  IC50: < 100 µM
KMS34
  IC50: > 100 µM
L363
  IC50: > 100 µM
AMO1
  IC50: > 100 µM
U266
  IC50: < 100 µM
HS27A
  IC50: > 100 µM
RPMI8266
  IC50: > 100 µM
HS5
  IC50: > 100 µM
799E
  IC50: < 100 µM
Mia-PaCa2
  IC50: < 100 µM
MDA-MB-231 [2]; 1.25 mg/kg and 2.5 mg/kg regimens, IP
  tumor growth post-treatment: demonstrated a dose response
MDA-MB-231 [2]; 2.5 mg/kg and 5 mg/kg dosing regimens, IP once a week or 3 times per week for 3 weeks
  growth of the tumors: nearly completely suppressed
MDA-MB-231 [2]; 5 mg/kg treatment regimens, IP
  tumor growth suppression 20 days post-dosing: about 90%
MDA-MB-231 [2]; all dosing regimens
  animal body weights: increased
MDA-MB-231 [2]; [9]
  white blood cell count and granulocyte count: remained within normal range
PC3 [3]; 1.25 mg/kg, 2.5 mg/kg, and 5 mg/kg regimens, IP
  tumor growth post-treatment: demonstrated a dose response
PC3 [3]; 5 mg/kg dosing regimen, IP once a week or 3 times per week for 3 weeks
  growth of the tumors: nearly completely suppressed
PC3 [3]; all dosing regimens
  animal body weights: remained the same increased
PC3 [3]; [9]
  white blood cell count and granulocyte count: remained within normal range
MDA-MB-231 [4]
  body weight: maintained weight
  myelosuppression: not dectected
MDA-MB-231 [4]; nude mice, 5 mg/kg compound (5), 20 mg/kg compound (7)
  tumor growth suppression: dose-dependent tumor growth suppression
U251 MG [5]
  crossing of the BBB: crossed the BBB
  glioblastoma tumor growth (bioluminescence imaging): suppressed glioblastoma tumor growth
U251 MG [6]
  glioblastoma tumor growth (bioluminescence imaging): dose-dependent suppression of glioblastoma tumor growth
[7]
  body weight: maintained weight
  myelosuppression: not dectected
  tumor growth suppression: dose-dependent tumor growth suppression
[8]
  toxicity to bone marrow progenitor cells (BFU-E, CFU-GM, Total CFC): melphalan is more toxic to bone marrow progenitor cells than compound (5)
